{"source": "patent US6881728B1", "about": "“14-β, 17-α-hydroxymethylandrostane derivatives as androgens” (Akzo Nobel N.V., priority 1999, dated 2005)"}
{"test_system": "not given", "experiment": "not given", "units": {"melting point": "°C"}}
{"smiles": "C[C@]12CC[C@H]3[C@@H](CCC4=CC(=O)CC[C@@H]43)[C@H]1CC[C@H]2CO", "note": "[Example 1, (14β,17α)-17-(Hydroxymethyl)estr-4-en-3-one]", "melting point": "115 to 118"}
{"smiles": "CC(=O)OC[C@@H]1CC[C@@H]2[C@@H]3CCC4=CC(=O)CC[C@]4(C)[C@H]3CC[C@]12C", "note": "[Example 22a, (14β,17α)-17-[(Acetyloxy)methyl]androst-4-en-3-one]", "melting point": "141 to 142"}
{"target": "T1, human androgen receptor (Homo sapiens, UniProt P10275)", "T1 construct": "host or cells: MCF-7 cytosol (endogenous) or CHO cells transfected with hAR", "T1 sequence (P10275 1-920)": "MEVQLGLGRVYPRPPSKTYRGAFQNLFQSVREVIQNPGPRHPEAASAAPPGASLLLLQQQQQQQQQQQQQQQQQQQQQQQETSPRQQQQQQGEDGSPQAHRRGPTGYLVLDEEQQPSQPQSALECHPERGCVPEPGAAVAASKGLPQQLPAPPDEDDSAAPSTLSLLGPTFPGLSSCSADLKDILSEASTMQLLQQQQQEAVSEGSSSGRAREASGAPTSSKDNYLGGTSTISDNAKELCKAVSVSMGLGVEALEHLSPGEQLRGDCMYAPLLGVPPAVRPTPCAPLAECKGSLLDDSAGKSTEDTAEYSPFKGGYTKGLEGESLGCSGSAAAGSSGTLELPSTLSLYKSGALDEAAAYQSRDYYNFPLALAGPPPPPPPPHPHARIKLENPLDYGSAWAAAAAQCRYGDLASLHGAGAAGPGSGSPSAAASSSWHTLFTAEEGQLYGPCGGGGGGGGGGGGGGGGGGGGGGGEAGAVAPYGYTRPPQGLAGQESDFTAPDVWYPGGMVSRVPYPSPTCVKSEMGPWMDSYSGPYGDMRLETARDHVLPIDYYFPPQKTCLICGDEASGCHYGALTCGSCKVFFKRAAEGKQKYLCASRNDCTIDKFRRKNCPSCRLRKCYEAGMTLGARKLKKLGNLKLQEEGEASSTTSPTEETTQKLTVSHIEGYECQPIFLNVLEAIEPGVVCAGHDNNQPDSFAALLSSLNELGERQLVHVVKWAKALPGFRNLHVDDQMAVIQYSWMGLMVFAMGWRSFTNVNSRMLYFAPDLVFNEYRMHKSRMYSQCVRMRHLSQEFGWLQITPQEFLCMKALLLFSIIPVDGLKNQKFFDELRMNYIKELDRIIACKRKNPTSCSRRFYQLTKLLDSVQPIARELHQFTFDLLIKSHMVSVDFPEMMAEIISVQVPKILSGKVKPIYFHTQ", "experiment": "androgenic activity rating (procedures described above; which one underlies the rating is not stated)", "parameters": "key: +: androgenic activity found; ++: high androgenic activity; +++: excellent androgenic activity", "procedure": "Androgenic activity can be measured in various ways. Thus, the potency of androgens can be determined in vitro using the cytoplasmic androgen receptor from human breast tumor cells (MCF-7 cell line); see Bergink, E. W. et al, Comparison of the receptor binding properties of nandrolone and testosterone under in vitro and in vivo conditions, J. Steroid Biochem. 22, 831-836 (1985). It is also possible to use Chinese hamster ovary (CHO) cells transfected with the human androgen receptor (incubation time 16 h, temperature 4° C.) and compared with the affinity of 5α-dihydrotestosterone [according to the procedure described by Bergink, E. W. et al, J. Steroid Biochem. 12, 1563-1570 (1983)]. The transactivative androgen activity of the compounds of the invention can be measured, e.g. in Chinese hamster ovary cells (CHO) transfected with the human androgen receptor (hAR), in combination with a mouse mammary tumor virus (MMTV), and luciferase […] (incubation time 16 h, temperature 37° C.) and compared with the activity of 5α-dihydrotestosterone [according to the procedure described by Schoonen, W. G. E. J. et al, Analyt. Biochem. 261, 222-224 (1998)]. For the in vivo potency determination of androgens the classical Hershberger test can be used. In this test the androgenic (increase in prostate weight) and anabolic activities [increase of the musculus levator ani (MLA)] of a compound are tested in immature castrated rats after daily administration for 7 days; see Hershberger, L. G. et al, Myotrophic activity of 19-Nortestosterone and other steroids determined by modified levator ani muscle method, Proceedings of the society for experimental biology and medicine 83, 175-180 (1953). Additionally, the effect of an androgenic compound on LH suppression can be tested in mature castrated rats according to Kumar, N. et al, The biological activity of 7alpha-methyl-19-nortestosterone is not amplified in male reproductive tract as is that of testosterone, Endocrinology 130, 3677-3683 (1992).\nA plurality of compounds according to the invention were tested for androgenic activity (the procedures for which have been described above) and rated in the Table below according to the following scheme: • + androgenic activity found; • ++ high androgenic activity; • +++ excellent androgenic activity; • nd no data available"}
{"smiles": "C[C@]12CC[C@H]3[C@@H](CCC4=CC(=O)CC[C@@H]43)[C@H]1CC[C@H]2CO", "note": "[Example 1, (14β,17α)-17-(Hydroxymethyl)estr-4-en-3-one]", "Rating (androgenic activity)": "+++"}
{"smiles": "CC(=O)OC[C@@H]1CC[C@@H]2[C@@H]3CCC4=CC(=O)CC[C@]4(C)[C@H]3CC[C@]12C", "note": "[Example 22a, (14β,17α)-17-[(Acetyloxy)methyl]androst-4-en-3-one]", "Rating (androgenic activity)": "+"}
{"smiles": "CC1CC2=CC(=O)CCC2C2CCC3(C)C(CCC3(C)CO)C12", "note": "(stereo not drawn) [Example 11, (7α,14β,17α)-17-(Hydroxymethyl)-7,17-dimethylestr-4-en-3-one]", "Rating (androgenic activity)": "+"}
{"smiles": "C[C@@H]1CC2=CC(=O)CC[C@@H]2[C@H]2CC[C@@]3(C)[C@H]([C@@H]4C[C@@H]4[C@H]3CO)[C@@H]21", "note": "[Example 10, (7α,14β,15β,16β,17α)-17-(Hydroxymethyl)-7-methyl-15,16-methyleneestr-4-en-3-one]", "Rating (androgenic activity)": "++"}
{"smiles": "CC(O)C1CCC2C3C(C)CC4=CC(=O)CCC4C3CCC12C", "note": "[Example 16b, (7α,14β,17α,20R)-20-Hydroxy-7-methyl-19-norpregn-4-en-3-one]", "Rating (androgenic activity)": "+"}
{"smiles": "CCC1CC2(C)C(C(C)O)CCC2C2CCC3=C(CCC(=O)C3)C12", "note": "[Example 28a, (11β,14β,17α,20S)-11-Ethyl-20-hydroxy-19-norpregn-5(10)-en-3-one]", "Rating (androgenic activity)": "+"}
{"smiles": "C[C@@H]1CC2=CC(=O)CC[C@@H]2[C@H]2CC[C@@]3(C)[C@H](C=C[C@H]3CO)[C@@H]21", "note": "[Example 5, (7α,14β,17α)-17-(hydroxymethyl)-7-methylestra-4,15-dien-3-one]", "Rating (androgenic activity)": "+++"}
{"smiles": "C[C@@H]1CC2=CC(=O)CC[C@@H]2[C@H]2CC[C@]3(C)[C@H](CO)CC[C@]3(C)[C@@H]21", "note": "[Example 6, (7α,14β,17α)-17-(Hydroxymethyl)-7,14-dimethylestr-4-en-3-one]", "Rating (androgenic activity)": "++"}
{"smiles": "CCC(O)[C@@H]1CC[C@@H]2[C@H]3[C@H](CC[C@@]21C)[C@H]1CCC(=O)C=C1C[C@H]3C", "note": "(stereo partly drawn) [Example 17b, [7α,14β,17α(R)]-17-(1-Hydroxypropyl)-7-methylestr-4-en-3-one]", "Rating (androgenic activity)": "+"}
{"smiles": "C=CC[C@@H](O)[C@@H]1CC[C@@H]2[C@H]3[C@H](CC[C@@]21C)[C@H]1CCC(=O)C=C1C[C@H]3C", "note": "[Example 18h, (7α,14β,17α,20R)-20-Hydroxy-7-methyl-19,21-dinorchola-4,23-dien-3-one]", "Rating (androgenic activity)": "+"}
{"smiles": "CC1CC2=CC(=O)CCC2C2CCC3(C)C(C4CC4C3C(C)(C)O)C12", "note": "(stereo not drawn) [Example 21, (7α,14β,15β,16β,17α)-20-Hydroxy-7,20-dimethyl-15,16-methylene-19-norpregn4-en-3-one]", "Rating (androgenic activity)": "+"}
{"smiles": "CCCC[C@H]1CC[C@H](C(=O)OC[C@@H]2CC[C@@H]3[C@H]4[C@H](CC[C@]23C)[C@H]2CCC(=O)C=C2C[C@H]4C)CC1", "note": "(relative stereo) [Example 33d, (7α,14β,17α)-17-[[[(trans-4-Butylcyclohexyl)carbonyl]oxy]methyl]-7-methylestr-4-en-3-one]", "Rating (androgenic activity)": "+"}
{"smiles": "C=CCC(O)C1CCC2C3C(C)CC4=CC(=O)CCC4C3CCC12C", "note": "[Example 18g, (7α,14β,17α,20S)-20-Hydroxy-7-methyl-19,21-dinorchola-4,23-dien-3-one]", "Rating (androgenic activity)": "+"}
{"smiles": "C[C@]12CCC3=C4CCC(=O)C=C4CC[C@H]3[C@H]1CC[C@H]2CO", "note": "[Example 3, (14β,17α)-17-(Hydroxymethyl)estra-4,9-dien-3-one]", "Rating (androgenic activity)": "+"}
{"smiles": "C[C@@H]1CC2=CC(=O)CC[C@@H]2[C@H]2CC[C@@]3(C)[C@H](CC[C@@]3(O)CO)[C@@H]21", "note": "[Example 13, (7α,14β,17β)-17-Hydroxy-17-(hydroxymethyl)-7-methylestr-4-en-3-one]", "Rating (androgenic activity)": "+"}
{"smiles": "C=C[C@@H]1CC2=CC(=O)CC[C@@H]2[C@H]2CC[C@]3(C)[C@H](CO)CC[C@@H]3[C@@H]21", "note": "[Example 15, (7α,14β,17α)-7-Ethenyl-17-(hydroxymethyl)estr-4-en-3-one]", "Rating (androgenic activity)": "++"}
